From EP0838225A2, “Aqueous local anesthetic solution” (Hiji, Yasutake, priority 1996, dated 1998)

Assays:
[1] = Turbidity and clearness of local anesthetic solutions from absorbance at 620 nm (Experimental Example 1); format: physicochemical; conditions: for OD (620 nm): absorbance at wavelength of 620 nm, CD added at equimolar concentration, pH as in label; for clearness (%) / turbidity (%): calculated from absorbance at 620 nm
Method: The turbidity and clearness of each inclusion compound solution were calculated from the absorbances thus obtained. […] In the same manner as above, OD (620 nm) was determined with respect to the obtained inclusion compound solution of each local anesthetic in cyclodextrin or a derivative thereof, and solutions of each local anesthetic. The turbidity and clearness of each inclusion compound solution were calculated from the absorbances thus obtained.

[2] = Absorbance at 620 nm and pH of solutions over time after stirring (Experimental Example 2); format: physicochemical; conditions: N=4; for pH: average; for absorbance at 620 nm: mean±S.E.
Method: The absorbance at wavelength 620 nm [OD(620 nm)] and pH of 0.4% dibucaine solution were determined using UV-visible recording spectrophotometer (UV-2100, Shimadzu Corporation). The solution was stirred, and OD (620 nm) and pH were determined at 5 min, 24 hr, 48 hr and 72 hr later.
OD (620 nm) and pH of the inclusion compound solution were determined in the same manner as above. The solution was stirred, and OD (620 nm) and pH were determined.
In the same manner as above, OD (620 nm) and pH of 1.0% tetracaine solution and an inclusion compound solution prepared by adding hydroxypropyl-β-cyclodextrin having an equimolar concentration to 1.0% tetracaine solution were determined. The solutions were stirred, and OD (620 nm) and pH were determined.
In the same manner as above, OD (620 nm) and pH of 0.5% bupivacaine solution and an inclusion compound solution prepared by adding α-cyclodextrin having an equimolar concentration to 0.5% bupivacaine solution were determined. The solutions were stirred, and OD (620 nm) and pH were determined.
The solutions were stirred, and OD (620 nm) and pH were determined.

[3] = system: abdominal giant nerve bundle of crayfish; assay: Anesthetic concentration versus action potential disappearance and recovery time (Experimental Example 7); format: cell-based, crayfish (Procambarus clarkii)
From the text: A local anesthetic effect is known to be stronger in alkaline range where pH value is greater.
In addition, the relationship between dibucaine concentration and neuroaction potential recovery time was examined at pH 7.4.

[4] = in vivo; conditions: mouse, sc, 40 mg/kg
Method: (§1) While local anesthetics are known to show inhibitory action on the central nerve cells at high concentrations, they show stimulating action at low concentrations. […] That is, 0.5 %dibucaine dissolved in physiological saline was subcutaneously injected into the back of 11 mice by 0.3 ml (40 mg/kg body weight), which were compared with 11 mice that underwent subcutaneous injection of a solution containing 0.5% dibucaine and α-cyclodextrin having an equimolar concentration, by 0.3 ml (40 mg/kg body weight).

[5] = system: mice; assay: in vivo; conditions: mouse, sc, 40 mg/kg
Method: as §1

| OD (620 nm) [1] | clearness (%) [1] | turbidity (%) [1] | SMILES | pH ([2]; 5 min later) | absorbance at 620 nm ([2]; 5 min later) | pH ([2]; 24 hr later) | absorbance at 620 nm ([2]; 24 hr later) | pH ([2]; 48 hr later) | absorbance at 620 nm ([2]; 48 hr later) | pH ([2]; initial) | absorbance at 620 nm ([2]; initial) | pH ([2]; 72 hr later) | absorbance at 620 nm ([2]; 72 hr later) | dibucaine concentration at which action potential disappeared and recovered ([3]; pH 7.4) | mortality [4] | time to death from the injection [5] | action potential disappearance time (expression of anesthetic action) ([3]; 0.4% lidocaine, pH 7.5) | action potential disappearance time (expression of anesthetic action) ([3]; 2% lidocaine, pH 6.5) |
| --- | --- | --- | --- | --- | --- | --- | --- | --- | --- | --- | --- | --- | --- | --- | --- | --- | --- | --- |
| 2.108 | 0% | 100% | CCCCN1CCCCC1C(=O)Nc1c(C)cccc1C (stereo not shown) [bupivacaine] | 7.20 | 0.087±0.015 | 6.89 | 0.659±0.084 | 6.77 | 0.247±0.061 | 5.44 | 0.000 | – | – | – | – | – | – | – |
| – | – | – | CCN(CC)CC(=O)Nc1c(C)cccc1C [lidocaine] | 7.09 | 1.045±0.242 | 7.05 | 0.717±0.152 | 7.10 | 0.382±0.044 | 4.59 | 0.006 | 7.12 | 0.595±0.086 | – | – | – | 2 min | 80 min |
| 2.732 | 0% | 100% | CCCCNc1ccc(C(=O)OCCN(C)C)cc1 [tetracaine] | 7.12 | 0.517±0.024 | 7.04 | 0.411±0.024 | 7.05 | 0.386±0.015 | 5.49 | 0.000 | 7.05 | 0.301±0.025 | – | – | – | – | – |

| SMILES | OD (620 nm) [1] | clearness (%) [1] | turbidity (%) [1] | pH ([2]; 5 min later) | absorbance at 620 nm ([2]; 5 min later) | pH ([2]; 24 hr later) | absorbance at 620 nm ([2]; 24 hr later) | pH ([2]; 48 hr later) | absorbance at 620 nm ([2]; 48 hr later) | pH ([2]; initial) | absorbance at 620 nm ([2]; initial) | pH ([2]; 72 hr later) | absorbance at 620 nm ([2]; 72 hr later) | dibucaine concentration at which action potential disappeared and recovered ([3]; pH 7.4) | mortality [4] | time to death from the injection [5] | action potential disappearance time (expression of anesthetic action) ([3]; 0.4% lidocaine, pH 7.5) | action potential disappearance time (expression of anesthetic action) ([3]; 2% lidocaine, pH 6.5) |
| --- | --- | --- | --- | --- | --- | --- | --- | --- | --- | --- | --- | --- | --- | --- | --- | --- | --- | --- |
| CCCCOc1cc(C(=O)NCCN(CC)CC)c2ccccc2n1 [dibucaine] | 2.015 | 0% | 100% | 6.85 | 1.528±0.087 | 6.76 | 1.456±0.079 | 6.73 | 1.385±0.042 | 6.19 | 0.000 | 6.75 | 1.412±0.054 | 0.008%-0.05% | 91% | about 20 min | – | – |
